According to US5202315A, “Cephalosporin compounds” (Lucky, Ltd., priority 1989, dated 1993):
≈ marks a conversion by molar mass, not a printed value. Where two headings read alike, the source gives them in different places.

What was measured:
[1] = system: Citrobacter freundii ATCC 8090; assay: Antibacterial activity, MIC; type: cell-based; conditions: ATCC8090, ATCC 8090, agar two-fold dilution, 37° C., 20 hours, read-out: MIC
How it was run: (§1)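 Incubation at 37 °C for 20 h followed inoculation of 2 μl standard strain (10^7 CFU/ml) onto agar carrying the compound. Compound was incorporated into Mueller-Hinton agar as two-fold serial dilutions.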

[2] = system: Proteus vulgaris ATCC 6059; assay: Antibacterial activity, MIC; type: cell-based; conditions: ATCC6059, ATCC 6059, agar two-fold dilution, 37° C., 20 hours, read-out: MIC
How it was run: as §1

[3] = system: Shigella flexneri ATCC 11836; assay: Antibacterial activity, MIC; type: cell-based; conditions: ATCC11836, agar two-fold dilution, 37° C., 20 hours
How it was run: as §1

[4] = system: Staphylococcus aureus ATCC 6538p; assay: Antibacterial activity, MIC; type: cell-based; conditions: ATCC6538P, ATCC 6538p, agar two-fold dilution, 37° C., 20 hours, read-out: MIC
How it was run: as §1

[5] = system: Staphylococcus epidermidis ATCC 12228; assay: Antibacterial activity, MIC; type: cell-based; conditions: ATCC12228, ATCC 12228, agar two-fold dilution, 37° C., 20 hours, read-out: MIC
How it was run: as §1

[6] = system: Proteus mirabilis ATCC 25933; assay: Antibacterial activity, MIC; type: cell-based; conditions: ATCC25933, ATCC 25933, agar two-fold dilution, 37° C., 20 hours, read-out: MIC
How it was run: as §1

[7] = system: Klebsiella pneumoniae ATCC 10031; assay: Antibacterial activity, MIC; type: cell-based; conditions: ATCC10031, ATCC 10031, agar two-fold dilution, 37° C., 20 hours, read-out: MIC
How it was run: as §1

[8] = system: Enterobacter cloacae ATCC 27508; assay: Antibacterial activity, MIC; type: cell-based; conditions: ATCC27508, ATCC 27508, agar two-fold dilution, 37° C., 20 hours, read-out: MIC
How it was run: as §1

[9] = system: Salmonella typhimurium ATCC 14028; assay: Antibacterial activity, MIC; type: cell-based; conditions: Salmonella enterica; ATCC 14028; agar two-fold dilution, 37° C., 20 hours; read-out: MIC
How it was run: as §1

[10] = system: Streptococcus faecalis ATCC 29212; assay: Antibacterial activity, MIC; type: cell-based; conditions: Enterococcus faecalis, ATCC29212; ATCC 29212; agar two-fold dilution, 37° C., 20 hours; read-out: MIC
How it was run: as §1

[11] = system: Micrococcus luteus ATCC 9341; assay: Antibacterial activity, MIC; type: cell-based; conditions: ATCC9341, ATCC 9341, agar two-fold dilution, 37° C., 20 hours, read-out: MIC
How it was run: as §1

[12] = system: Pseudomonas aeruginosa ATCC 10145; assay: Antibacterial activity, MIC; type: cell-based; conditions: ATCC10145, ATCC 10145, agar two-fold dilution, 37° C., 20 hours, read-out: MIC
How it was run: as §1

[13] = system: Escherichia coli ATCC 25922; assay: Antibacterial activity, MIC; type: cell-based; conditions: ATCC25922, agar two-fold dilution, 37° C., 20 hours
How it was run: as §1

[14] = system: Providencia rettgeri ATCC 9250; assay: Antibacterial activity, MIC; type: cell-based; conditions: ATCC9250, agar two-fold dilution, 37° C., 20 hours
How it was run: as §1

[15] = system: Escherichia coli ATCC 10536; assay: Antibacterial activity, MIC; type: cell-based; conditions: ATCC10536, agar two-fold dilution, 37° C., 20 hours
How it was run: as §1

[16] = system: Enterobacter aerogenes ATCC 29751; assay: Antibacterial activity, MIC; type: cell-based; conditions: Klebsiella aerogenes, ATCC29751; ATCC 29751; agar two-fold dilution, 37° C., 20 hours; read-out: MIC
How it was run: as §1

[17] = system: Bacillus cereus ATCC 11778; assay: Antibacterial activity, MIC; type: cell-based; conditions: ATCC11778, ATCC 11778, agar two-fold dilution, 37° C., 20 hours, read-out: MIC
How it was run: as §1

[18] = system: Pseudomonas aeruginosa ATCC 25619; assay: Antibacterial activity, MIC; type: cell-based; conditions: ATCC25619, ATCC 25619, agar two-fold dilution, 37° C., 20 hours, read-out: MIC
How it was run: as §1

[19] = system: Acinetobacter calcoaceticus ATCC 15473; assay: Antibacterial activity, MIC; type: cell-based; conditions: ATCC15473, ATCC 15473, agar two-fold dilution, 37° C., 20 hours, read-out: MIC
How it was run: as §1

[20] = system: Morganella morganii ATCC 8076h; assay: Antibacterial activity, MIC; type: cell-based; conditions: ATCC8076H, agar two-fold dilution, 37° C., 20 hours
How it was run: as §1

[21] = system: Staphylococcus aureus ATCC 10537; assay: Antibacterial activity, MIC; type: cell-based; conditions: ATCC10537, ATCC 10537, agar two-fold dilution, 37° C., 20 hours, read-out: MIC
How it was run: as §1

[22] = system: Shigella sonnei ATCC 11060; assay: Antibacterial activity, MIC; type: cell-based; conditions: ATCC11060, ATCC 11060, agar two-fold dilution, 37° C., 20 hours, read-out: MIC
How it was run: as §1

[23] = system: Bacillus megaterium ATCC 9885; assay: Antibacterial activity, MIC; type: cell-based; conditions: Priestia megaterium, ATCC9885; ATCC 9885; agar two-fold dilution, 37° C., 20 hours; read-out: MIC
How it was run: as §1

[24] = system: Serratia marcescens ATCC 27117; assay: Antibacterial activity, MIC; type: cell-based; conditions: ATCC27117, ATCC 27117, agar two-fold dilution, 37° C., 20 hours, read-out: MIC
How it was run: as §1

[25] = system: Pseudomonas aeruginosa ATCC 27853; assay: Antibacterial activity, MIC; type: cell-based; conditions: ATCC27853, ATCC 27853, agar two-fold dilution, 37° C., 20 hours, read-out: MIC
How it was run: as §1

[26] = In-vivo absorbency (plasma concentrations & pharmacokinetic parameters); parameters: species or system SD rat (male); conditions: plasma, SD male rat, iv 20 mg/kg, read-out: Plasma Conc.
[27] = as above; parameters: species or system SD rat (male); conditions: plasma, SD male rat, iv 20 mg/kg; for half-life: rat, iv, 20 mg/kg
Text: The blood samples from the femoral vein of the rats were taken every hour after administration, and analyzed by bio-assay(agar well method).
Tested animal: SD male Rat (220~340 g)

Escherichia coli = assay: Antibacterial activity against clinically isolated strains, MIC; type: cell-based; conditions: 38 clinical isolates, broth microdilution test
[28] = system: Staphylococcus aureus methicillin susceptible; assay: as above; type: cell-based; conditions: methicillin susceptible, 42 clinical isolates, broth microdilution test; for MIC90: read-out: MIC 90%
[29] = system: Staphylococcus aureus methicillin resistant; assay: as above; type: cell-based; conditions: methicillin resistant, 7 clinical isolates, broth microdilution test; for MIC90: read-out: MIC 90%
Klebsiella pneumoniae = assay: as above; type: cell-based; conditions: 10 clinical isolates, broth microdilution test; for MIC90: read-out: MIC 90%
Pseudomonas aeruginosa = assay: as above; type: cell-based; conditions: 54 clinical isolates, broth microdilution test; for MIC90: read-out: MIC 90%

SMILES	MIC [1]	MIC [2]	MIC [3]	MIC [4]	MIC [5]	MIC [6]	MIC [7]	MIC [8]	MIC [9]	MIC [10]	MIC [11]	MIC [12]	MIC [13]	MIC [14]	MIC [15]	MIC [16]	MIC [17]	MIC [18]	MIC [19]	MIC [20]	other results
CC[n+]1c(N)cc(N)nc1SCC1=C(C(=O)[O-])N2C(=O)C(NC(=O)/C(=N\OCC(=O)O)c3csc(N)n3)C2SC1 (stereo not shown) [Compound I-8]	0.031 µg/mL (≈ 0.0508 µM)	0.016 µg/mL (≈ 0.0262 µM)	0.016 µg/mL (≈ 0.0262 µM)	4 µg/mL (≈ 6.56 µM)	1 µg/mL (≈ 1.64 µM)	0.031 µg/mL (≈ 0.0508 µM)	0.016 µg/mL (≈ 0.0262 µM)	≤ 0.008 µg/mL	0.063 µg/mL (≈ 0.103 µM)	> 128 µg/mL	0.13 µg/mL (≈ 0.213 µM)	4 µg/mL (≈ 6.56 µM)	0.031 µg/mL (≈ 0.0508 µM)	0.016 µg/mL (≈ 0.0262 µM)	0.031 µg/mL (≈ 0.0508 µM)	1 µg/mL (≈ 1.64 µM)	64 µg/mL (≈ 105 µM)	2 µg/mL (≈ 3.28 µM)	8 µg/mL (≈ 13.1 µM)	≤ 0.008 µg/mL	MIC [21]: 2 µg/mL (≈ 3.28 µM); MIC [22]: 0.031 µg/mL (≈ 0.0508 µM); MIC [23]: 0.5 µg/mL (≈ 0.82 µM); MIC [24]: 0.031 µg/mL (≈ 0.0508 µM); MIC [25]: 2 µg/mL (≈ 3.28 µM); concentration at 1 min ([26]; 1 min): 121000 ng/mL; concentration at 2.5 min ([26]; 2.5 min): 92000 ng/mL; concentration at 5 min ([26]; 5 min): 64000 ng/mL; concentration at 10 min ([26]; 10 min): 48000 ng/mL; concentration at 20 min ([26]; 20 min): 36000 ng/mL; concentration at 40 min ([26]; 40 min): 15000 ng/mL; concentration at 1 h ([27]; 60 min, read-out: Plasma Conc.): 8700 ng/mL; concentration at 2 h ([27]; 120 min, read-out: Plasma Conc.): 2700 ng/mL; AUC ([27]; two compartment model): 43400 ng·h/mL; half-life ([27]; two compartment model, read-out: T1/2 (α)): 6 min; half-life ([27]; two compartment model, read-out: T1/2 (β)): 32 min
CC(O/N=C(\C(=O)NC1C(=O)N2C(C(=O)[O-])=C(CSc3nc(N)cc(N)[n+]3N)CSC12)c1csc(N)n1)C(=O)O (stereo not shown) [Compound I-14]	0.031 µg/mL (≈ 0.0508 µM)	0.031 µg/mL (≈ 0.0508 µM)	0.031 µg/mL (≈ 0.0508 µM)	4 µg/mL (≈ 6.55 µM)	1 µg/mL (≈ 1.64 µM)	0.031 µg/mL (≈ 0.0508 µM)	0.031 µg/mL (≈ 0.0508 µM)	≤ 0.008 µg/mL	0.13 µg/mL (≈ 0.213 µM)	> 128 µg/mL	0.5 µg/mL (≈ 0.819 µM)	2 µg/mL (≈ 3.28 µM)	0.031 µg/mL (≈ 0.0508 µM)	≤ 0.008 µg/mL	0.031 µg/mL (≈ 0.0508 µM)	0.5 µg/mL (≈ 0.819 µM)	64 µg/mL (≈ 105 µM)	1 µg/mL (≈ 1.64 µM)	2 µg/mL (≈ 3.28 µM)	≤ 0.008 µg/mL	MIC [21]: 2 µg/mL (≈ 3.28 µM); MIC [22]: 0.016 µg/mL (≈ 0.0262 µM); MIC [23]: 0.5 µg/mL (≈ 0.819 µM); MIC [24]: 0.031 µg/mL (≈ 0.0508 µM); MIC [25]: 1 µg/mL (≈ 1.64 µM); MIC50 (Escherichia coli): 0.031 µg/mL (≈ 0.0508 µM); MIC90 (Escherichia coli): 0.063 µg/mL (≈ 0.103 µM); MIC50 [28]: 4 µg/mL (≈ 6.55 µM); MIC90 [28]: 4 µg/mL (≈ 6.55 µM); MIC50 [29]: > 128 µg/mL; MIC90 [29]: > 128 µg/mL; MIC50 (Klebsiella pneumoniae): 0.031 µg/mL (≈ 0.0508 µM); MIC90 (Klebsiella pneumoniae): 0.063 µg/mL (≈ 0.103 µM); MIC50 (Pseudomonas aeruginosa): 1 µg/mL (≈ 1.64 µM); MIC90 (Pseudomonas aeruginosa): 4 µg/mL (≈ 6.55 µM)
CCO/N=C(\C(=O)NC1C(=O)N2C(C(=O)[O-])=C(CSc3nc(N)cc(N)[n+]3N)CSC12)c1nsc(N)n1 (stereo not shown) [Compound I-17]	0.063 µg/mL (≈ 0.111 µM)	0.5 µg/mL (≈ 0.881 µM)	0.031 µg/mL (≈ 0.0546 µM)	0.5 µg/mL (≈ 0.881 µM)	0.25 µg/mL (≈ 0.44 µM)	0.5 µg/mL (≈ 0.881 µM)	0.016 µg/mL (≈ 0.0282 µM)	0.016 µg/mL (≈ 0.0282 µM)	0.5 µg/mL (≈ 0.881 µM)	32 µg/mL (≈ 56.4 µM)	0.016 µg/mL (≈ 0.0282 µM)	4 µg/mL (≈ 7.05 µM)	0.13 µg/mL (≈ 0.229 µM)	≤ 0.008 µg/mL	0.13 µg/mL (≈ 0.229 µM)	0.25 µg/mL (≈ 0.44 µM)	8 µg/mL (≈ 14.1 µM)	0.5 µg/mL (≈ 0.881 µM)	2 µg/mL (≈ 3.52 µM)	0.016 µg/mL (≈ 0.0282 µM)	MIC [21]: 0.5 µg/mL (≈ 0.881 µM); MIC [22]: 0.13 µg/mL (≈ 0.229 µM); MIC [23]: 0.13 µg/mL (≈ 0.229 µM); MIC [24]: 0.25 µg/mL (≈ 0.44 µM); MIC [25]: 2 µg/mL (≈ 3.52 µM); MIC50 (Escherichia coli): 0.13 µg/mL (≈ 0.229 µM); MIC90 (Escherichia coli): 0.25 µg/mL (≈ 0.44 µM); MIC50 [28]: 0.5 µg/mL (≈ 0.881 µM); MIC90 [28]: 1 µg/mL (≈ 1.76 µM); MIC50 [29]: 16 µg/mL (≈ 28.2 µM); MIC90 [29]: 64 µg/mL (≈ 113 µM); MIC50 (Klebsiella pneumoniae): 0.25 µg/mL (≈ 0.44 µM); MIC90 (Klebsiella pneumoniae): 0.25 µg/mL (≈ 0.44 µM); MIC50 (Pseudomonas aeruginosa): 4 µg/mL (≈ 7.05 µM); MIC90 (Pseudomonas aeruginosa): 8 µg/mL (≈ 14.1 µM)
